From ChEMBL document CHEMBL1138190, “Synthesis and antibacterial activity of novel C12 vinyl ketolides” (J Med Chem, 2006)
In brackets after ≈: the same amount, converted by molar mass. Activity calls are given as the source filed them. No cut-off for these calls is given here.

How the values were obtained:
Streptococcus pneumoniae [1] = assay: Antibacterial activity against Streptococcus pneumoniae Mef 4331; assay type: functional
Streptococcus pneumoniae [2] = assay: Antibacterial activity against Streptococcus pneumoniae Mef 1566; assay type: functional
Streptococcus pneumoniae [3] = assay: Antibacterial activity against Streptococcus pneumoniae Erm 8947; assay type: functional
Streptococcus pneumoniae [4] = assay: Antibacterial activity against Streptococcus pneumoniae Mef 2880; assay type: functional
Enterococcus faecalis [5] = assay: Antibacterial activity against Enterococcus faecalis bc11148-2; assay type: functional
Streptococcus pneumoniae [6] = assay: Antibacterial activity against Streptococcus pneumoniae Erm 5590; assay type: functional
Streptococcus pneumoniae [7] = assay: Antibacterial activity against Streptococcus pneumoniae 49619; assay type: functional
Streptococcus pneumoniae [8] = assay: Antibacterial activity against Streptococcus pneumoniae 280-962; assay type: functional
Streptococcus pneumoniae [9] = assay: Antibacterial activity against Streptococcus pneumoniae Mef 10095; assay type: functional
Enterococcus faecalis [10] = assay: Antibacterial activity against Enterococcus faecalis 29212; assay type: functional
Staphylococcus aureus [11] = assay: Antibacterial activity against Staphylococcus aureus 33591; assay type: functional
[12] = Oral bioavailability in Sprague-Dawley rat at 15 mg/kg, po; assay type: ADME, organism-based; conditions: in vivo
Streptococcus pneumoniae [13] = assay: Antibacterial activity against Streptococcus pneumoniae Erm 8257; assay type: functional
Streptococcus pneumoniae [14] = assay: Antibacterial activity against Streptococcus pneumoniae Erm 2218; assay type: functional
Haemophilus influenzae [15] = assay: Antibacterial activity against Haemophilus influenzae 49247; assay type: functional
Streptococcus pyogenes = assay: Antibacterial activity against Streptococcus pyogenes 8668; assay type: functional
Streptococcus pneumoniae [16] = assay: Antibacterial activity against Streptococcus pneumoniae Mef 5654; assay type: functional
Streptococcus pneumoniae [17] = assay: Antibacterial activity against Streptococcus pneumoniae Erm 10279; assay type: functional
Rattus norvegicus [18] = assay: Efficacy against Streptococcus pneumoniae Erm in Sprague-Dawley rat lung infection model at 50 mg/kg; assay type: functional, organism-based; design: dose 50 mg/kg
Streptococcus pneumoniae [19] = assay: Antibacterial activity against Streptococcus pneumoniae Mef 3449; assay type: functional
[20] = Plasma half life in Sprague-Dawley rat at 5 mg/kg, iv; assay type: ADME, organism-based; design: dose 5 mg/kg, route intravenous
Staphylococcus aureus [21] = assay: Antibacterial activity against Staphylococcus aureus 29213; assay type: functional
Streptococcus pneumoniae [22] = assay: Antibacterial activity against Streptococcus pneumoniae Mef 1556; assay type: functional
Rattus norvegicus [23] = assay: Efficacy against Haemophilus influenzae in Sprague-Dawley rat lung infection model at 50 mg/kg; assay type: functional, organism-based; design: dose 50 mg/kg
[24] = Plasma half life in Sprague-Dawley rat at 15 mg/kg, po; assay type: ADME, organism-based; design: dose 15 mg/kg, route oral
Streptococcus pneumoniae [25] = assay: Antibacterial activity against Streptococcus pneumoniae Erm 5554; assay type: functional
Streptococcus pneumoniae [26] = assay: Antibacterial activity against Streptococcus pneumoniae Mef 4126; assay type: functional
Streptococcus pneumoniae [27] = assay: Antibacterial activity against Streptococcus pneumoniae Mef 953; assay type: functional
Rattus norvegicus [28] = assay: Plasma AUC in Sprague-Dawley rat at 5 mg/kg, iv; assay type: ADME, organism-based; design: dose 5 mg/kg, route intravenous; conditions: in vivo
Streptococcus pneumoniae [29] = assay: Antibacterial activity against Streptococcus pneumoniae Mef 9142; assay type: functional
Streptococcus pneumoniae [30] = assay: Antibacterial activity against Streptococcus pneumoniae Erm 4290; assay type: functional
Streptococcus pneumoniae [31] = assay: Antibacterial activity against Streptococcus pneumoniae Mef 9959; assay type: functional
Streptococcus pneumoniae [32] = assay: Antibacterial activity against Streptococcus pneumoniae Erm S 4085; assay type: functional
Streptococcus pneumoniae [33] = assay: Antibacterial activity against Streptococcus pneumoniae Erm 3120; assay type: functional
Streptococcus pneumoniae [34] = assay: Antibacterial activity against Streptococcus pneumoniae Erm 8339; assay type: functional
Streptococcus pneumoniae [35] = assay: Antibacterial activity against Streptococcus pneumoniae Mef 3855; assay type: functional
[36] = test system: Staphylococcus epidermidis; assay: Antibacterial activity against Staphylococcus epidermidis f50654; assay type: functional
Streptococcus pneumoniae [37] = assay: Antibacterial activity against Streptococcus pneumoniae Erm 8919; assay type: functional
Streptococcus pneumoniae [38] = assay: Antibacterial activity against Streptococcus pneumoniae Erm 5399; assay type: functional
[39] = Volume of distribution in Sprague-Dawley rat at 5 mg/kg, iv and 15 mg/kg, po; assay type: ADME, organism-based; conditions: in vivo, read-out: Vdss
Streptococcus pneumoniae [40] = assay: Antibacterial activity against Streptococcus pneumoniae 297-749; assay type: functional
Streptococcus pneumoniae [41] = assay: Antibacterial activity against Streptococcus pneumoniae Erm 4589; assay type: functional
Streptococcus pneumoniae [42] = assay: Antibacterial activity against Streptococcus pneumoniae Mef S 3427; assay type: functional
Streptococcus pneumoniae [43] = assay: Antibacterial activity against Streptococcus pneumoniae Mef 983; assay type: functional
Streptococcus pneumoniae [44] = assay: Antibacterial activity against Streptococcus pneumoniae Mef 6966; assay type: functional
Streptococcus pneumoniae [45] = assay: Antibacterial activity against Streptococcus pneumoniae Mef 2382; assay type: functional
Streptococcus pneumoniae [46] = assay: Antibacterial activity against Streptococcus pneumoniae Mef S 3435; assay type: functional
[47] = test system: Staphylococcus epidermidis; assay: Antibacterial activity against Staphylococcus epidermidis 14990; assay type: functional
Streptococcus pneumoniae [48] = assay: Antibacterial activity against Streptococcus pneumoniae Erm 5415; assay type: functional
Streptococcus pneumoniae [49] = assay: Antibacterial activity against Streptococcus pneumoniae Mef 1790; assay type: functional
Streptococcus pneumoniae [50] = assay: Antibacterial activity against Streptococcus pneumoniae Erm S 4297; assay type: functional
Streptococcus pneumoniae [51] = assay: Antibacterial activity against Streptococcus pneumoniae Erm 6849; assay type: functional
Streptococcus pneumoniae [52] = assay: Antibacterial activity against Streptococcus pneumoniae Erm 6396; assay type: functional
Streptococcus pneumoniae [53] = assay: Antibacterial activity against Streptococcus pneumoniae Erm 867; assay type: functional
Streptococcus pneumoniae [54] = assay: Antibacterial activity against Streptococcus pneumoniae Mef 41; assay type: functional
Streptococcus pneumoniae [55] = assay: Antibacterial activity against Streptococcus pneumoniae Mef 5649; assay type: functional
Streptococcus pneumoniae [56] = assay: Antibacterial activity against Streptococcus pneumoniae Erm 6388; assay type: functional
Streptococcus pneumoniae [57] = assay: Antibacterial activity against Streptococcus pneumoniae Erm 5354; assay type: functional
[58] = Lung half life in Sprague-Dawley rat at 15 mg/kg, po; assay type: ADME, organism-based; design: dose 15 mg/kg, route oral
Streptococcus pneumoniae [59] = assay: Antibacterial activity against Streptococcus pneumoniae Erm 7985; assay type: functional
[60] = Lung-to-plasma AUC ratio in Sprague-Dawley rat at 5 mg/kg, iv; assay type: ADME, organism-based; design: dose 5 mg/kg, route intravenous; conditions: lung and plasma
Haemophilus influenzae [61] = assay: Antibacterial activity against Haemophilus influenzae 2762; assay type: functional

C=C[C@]12OC(=O)N(CCCCn3cnc(-c4ccc(C)nc4)c3)[C@@H]1[C@@H](C)C(=O)[C@H](C)C[C@@](C)(OC)[C@H](O[C@@H]1O[C@H](C)C[C@H](N(C)C)[C@H]1O)[C@@H](C)C(=O)[C@@H](C)C(=O)O[C@@H]2CC
MIC (Streptococcus pneumoniae [1]): 0.4 µg/mL (≈ 0.477 µM)
MIC (Streptococcus pneumoniae [2]): 0.4 µg/mL (≈ 0.477 µM)
MIC (Streptococcus pneumoniae [3]): 0.4 µg/mL (≈ 0.477 µM)
MIC (Streptococcus pneumoniae [4]): 0.2 µg/mL (≈ 0.239 µM)
MIC (Enterococcus faecalis [5]): 0.78 µg/mL (≈ 0.931 µM)
MIC (Streptococcus pneumoniae [6]): 0.025 µg/mL (≈ 0.0298 µM)
MIC (Streptococcus pneumoniae [7]): ≤ 0.05 µg/mL
MIC (Streptococcus pneumoniae [8]): ≤ 0.05 µg/mL
MIC (Streptococcus pneumoniae [9]): ≤ 0.05 µg/mL
MIC (Enterococcus faecalis [10]): 0.1 µg/mL (≈ 0.119 µM)
MIC (Staphylococcus aureus [11]): > 50 µg/mL
bioavailability [12]: 35%
MIC (Streptococcus pneumoniae [13]): ≤ 0.013 µg/mL
MIC (Streptococcus pneumoniae [14]): 0.1 µg/mL (≈ 0.119 µM)
MIC (Haemophilus influenzae [15]): 3.13 µg/mL (≈ 3.73 µM)
MIC (Streptococcus pyogenes): ≤ 0.05 µg/mL
MIC (Streptococcus pneumoniae [16]): 0.4 µg/mL (≈ 0.477 µM)
MIC (Streptococcus pneumoniae [17]): 0.025 µg/mL (≈ 0.0298 µM)
Activity (Rattus norvegicus [18]): Active
MIC (Streptococcus pneumoniae [19]): 0.2 µg/mL (≈ 0.239 µM)
half-life [20]: 1.6 h
MIC (Staphylococcus aureus [21]): 0.2 µg/mL (≈ 0.239 µM)
MIC (Streptococcus pneumoniae [22]): ≤ 0.05 µg/mL
Activity (Rattus norvegicus [23]): Active
half-life [24]: 2.4 h
MIC (Streptococcus pneumoniae [25]): 0.78 µg/mL (≈ 0.931 µM)
MIC (Streptococcus pneumoniae [26]): ≤ 0.05 µg/mL
MIC (Streptococcus pneumoniae [27]): 0.1 µg/mL (≈ 0.119 µM)
AUC (Rattus norvegicus [28]): 2100 ng·h/mL
MIC (Streptococcus pneumoniae [29]): 0.4 µg/mL (≈ 0.477 µM)
MIC (Streptococcus pneumoniae [30]): 0.05 µg/mL (≈ 0.0597 µM)
MIC (Streptococcus pneumoniae [31]): 0.2 µg/mL (≈ 0.239 µM)
MIC (Streptococcus pneumoniae [32]): 0.025 µg/mL (≈ 0.0298 µM)
MIC (Streptococcus pneumoniae [33]): 0.2 µg/mL (≈ 0.239 µM)
MIC (Streptococcus pneumoniae [34]): 1.56 µg/mL (≈ 1.86 µM)
MIC (Streptococcus pneumoniae [35]): 0.2 µg/mL (≈ 0.239 µM)
MIC [36]: 0.2 µg/mL (≈ 0.239 µM)
MIC (Streptococcus pneumoniae [37]): 0.025 µg/mL (≈ 0.0298 µM)
MIC (Streptococcus pneumoniae [38]): 0.025 µg/mL (≈ 0.0298 µM)
Vd [39]: 14 L/kg
MIC (Streptococcus pneumoniae [40]): ≤ 0.05 µg/mL
MIC (Streptococcus pneumoniae [41]): 0.025 µg/mL (≈ 0.0298 µM)
MIC (Streptococcus pneumoniae [42]): 0.2 µg/mL (≈ 0.239 µM)
MIC (Streptococcus pneumoniae [43]): 0.4 µg/mL (≈ 0.477 µM)
MIC (Streptococcus pneumoniae [44]): 0.2 µg/mL (≈ 0.239 µM)
MIC (Streptococcus pneumoniae [45]): 0.1 µg/mL (≈ 0.119 µM)
MIC (Streptococcus pneumoniae [46]): <=0.05 ug ml-1
MIC [47]: 0.2 µg/mL (≈ 0.239 µM)
MIC (Streptococcus pneumoniae [48]): 0.025 µg/mL (≈ 0.0298 µM)
MIC (Streptococcus pneumoniae [49]): 0.2 µg/mL (≈ 0.239 µM)
MIC (Streptococcus pneumoniae [50]): 0.025 µg/mL (≈ 0.0298 µM)
MIC (Streptococcus pneumoniae [51]): 0.1 µg/mL (≈ 0.119 µM)
MIC (Streptococcus pneumoniae [52]): 0.1 µg/mL (≈ 0.119 µM)
MIC (Streptococcus pneumoniae [53]): 0.025 µg/mL (≈ 0.0298 µM)
MIC (Streptococcus pneumoniae [54]): 0.1 µg/mL (≈ 0.119 µM)
MIC (Streptococcus pneumoniae [55]): 0.2 µg/mL (≈ 0.239 µM)
MIC (Streptococcus pneumoniae [56]): 3.13 µg/mL (≈ 3.73 µM)
MIC (Streptococcus pneumoniae [57]): 0.025 µg/mL (≈ 0.0298 µM)
half-life [58]: 3.4 h
MIC (Streptococcus pneumoniae [59]): ≤ 0.013 µg/mL
Kp [60]: 80
MIC (Haemophilus influenzae [61]): 1.56 µg/mL (≈ 1.86 µM)
